The subject of data set [1] is patients with locally advanced or metastatic SCLC, ovarian cancer or cervical cancer. In words: Phase Ib Part 1: DLT evaluation and RP2D determination. In kind it is in vivo, human. The settings on record: IV over 30 min days 1, 8, 15, 22 every 28 days; topotecan 4 mg/m^2 days 1, 8, 15.
For data set [2], the system named is leukemia xenograft models. The settings on record: cited from earlier work.
Data set [3] relates to leukemia and lung cancer cell lines. The settings on record: cited from earlier work.
Data set [4] relates to patients with locally advanced or metastatic SCLC, ovarian and cervical cancers. The settings on record: in vivo.
For data set [5], the system named is patients with advanced solid tumors. The settings on record: cited from earlier work.
Data set [6] can be described thus: ME-344 plasma pharmacokinetics, Part 1 cycle 1, noncompartmental. The settings on record: ME-344 10 mg/kg IV over 30 min with topotecan, 13 patients, arithmetic mean.
For data set [7] the following is noted: in vivo.
Another data set deals with patients. The settings on record: topotecan monotherapy; cited from earlier work.

The text below walks through data of article PMC7466821 (Investigational new drugs, 2017).

Each structure is given as a SMILES string. Where “and” joins values, the source holds several entries; their conditions need not be identical. Identical values can stand only once.

Regarding `Cc1c(O)ccc2c1OC[C@@H](c1ccc(O)cc1)[C@H]2c1ccc(O)cc1` [ME-344], the “recommended phase II dose (RP2D) of ME-344 in combination with topotecan” value in data set [1] was 10 mg/kg. Further, in data set [2], the anti-tumor activity result is “demonstrates anti-tumor activity”. For the same molecule, the cytotoxicity in vitro entry in data set [3] was “cytotoxic”. Also, the “patients with SAE related to ME-344 (grade 3 diarrhea)” value in data set [4] stood at 1 patient. Besides, the neurotoxicity result in data set [4] (iv, 10 mg/kg) was “neurotoxicity was not observed”. In data set [5] (IV weekly), the “doses at which DLT (grade 3 or higher peripheral neuropathy) was observed” value is 15 to 20 mg/kg and > 10 mg/kg; the “recommended phase II dose (RP2D), single agent” value is 10 mg/kg. Moreover, in data set [5], the “duration of prolonged stable disease” value was 31–52 weeks and the “patients with prolonged stable disease” value was 5 patients. The “duration of partial response” value in data set [5] (single patient with SCLC) is 52 weeks. Also, in data set [6], the “t1/2 (terminal half-life)” value was 5.3 h and 5.301 h. The “end-of-infusion concentration on Day 15 lower than on Day 1” value in data set [7] is recorded as “approximately 27%”.

As for `CC[C@@]1(O)C(=O)OCc2c1cc1n(c2=O)Cc2cc3c(CN(C)C)c(O)ccc3nc2-1` [topotecan, reference compound], the “grade 3/4 hematologic toxicity rate” value in the data set on patients is reported as 16.7%. In addition, in data set [4] (human), the “SAEs related to topotecan in the additional patients” value is on record as 6 SAEs and the “additional patients with SAEs related to topotecan” value came out at 5 patients.
